For one assay, the target named is BTK (Homo sapiens, UniProt Q06187). Description: KINOMEscan competition binding assay, Kd.
A further assay deals with JAK3 (Homo sapiens, UniProt P52333). Description: KINOMEscan competition binding assay, Kd.
Another assay has as its target T1, TEC (Homo sapiens, UniProt P42680).
T1 sequence (P42680 1-631): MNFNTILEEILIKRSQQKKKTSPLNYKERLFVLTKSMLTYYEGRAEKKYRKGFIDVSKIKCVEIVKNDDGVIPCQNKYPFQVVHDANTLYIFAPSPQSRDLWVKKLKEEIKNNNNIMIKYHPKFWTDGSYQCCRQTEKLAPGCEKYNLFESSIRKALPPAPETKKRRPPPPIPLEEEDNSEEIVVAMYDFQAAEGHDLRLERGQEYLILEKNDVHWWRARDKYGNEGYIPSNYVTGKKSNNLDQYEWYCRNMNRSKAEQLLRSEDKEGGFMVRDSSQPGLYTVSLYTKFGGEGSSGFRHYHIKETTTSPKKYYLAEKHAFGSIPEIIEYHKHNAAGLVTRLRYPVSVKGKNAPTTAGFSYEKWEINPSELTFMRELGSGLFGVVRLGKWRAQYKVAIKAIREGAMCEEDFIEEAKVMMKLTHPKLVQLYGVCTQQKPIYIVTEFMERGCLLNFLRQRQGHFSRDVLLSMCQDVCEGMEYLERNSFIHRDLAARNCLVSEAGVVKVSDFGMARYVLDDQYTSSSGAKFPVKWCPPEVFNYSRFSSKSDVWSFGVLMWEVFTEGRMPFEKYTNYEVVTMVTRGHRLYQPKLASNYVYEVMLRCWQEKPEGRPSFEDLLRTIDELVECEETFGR
The experiment in a line: KINOMEscan competition binding assay, Kd.

The target in assay [1] is T2, BMX (Homo sapiens, UniProt P51813).
T2 sequence (P51813 1-675): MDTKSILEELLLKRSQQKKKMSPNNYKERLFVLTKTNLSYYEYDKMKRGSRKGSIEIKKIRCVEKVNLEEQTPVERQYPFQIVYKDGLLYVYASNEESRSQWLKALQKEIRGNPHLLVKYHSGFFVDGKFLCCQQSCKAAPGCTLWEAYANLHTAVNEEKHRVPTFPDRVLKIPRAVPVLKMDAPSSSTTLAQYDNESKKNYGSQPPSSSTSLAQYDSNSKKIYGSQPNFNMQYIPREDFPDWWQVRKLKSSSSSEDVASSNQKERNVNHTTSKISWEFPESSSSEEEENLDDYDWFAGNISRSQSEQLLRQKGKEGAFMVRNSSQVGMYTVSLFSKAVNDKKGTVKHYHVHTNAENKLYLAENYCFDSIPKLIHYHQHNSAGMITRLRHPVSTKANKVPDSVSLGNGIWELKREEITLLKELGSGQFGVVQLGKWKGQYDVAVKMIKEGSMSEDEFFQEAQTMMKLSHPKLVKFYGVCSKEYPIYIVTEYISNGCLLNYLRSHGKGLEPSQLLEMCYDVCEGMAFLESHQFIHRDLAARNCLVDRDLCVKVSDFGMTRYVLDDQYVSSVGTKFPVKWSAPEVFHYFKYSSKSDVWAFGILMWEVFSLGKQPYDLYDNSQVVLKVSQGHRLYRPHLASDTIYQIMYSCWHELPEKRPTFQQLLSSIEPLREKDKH
The experiment in a line: KINOMEscan competition binding assay, Kd. Also noted: DNA tag for qPCR (T7 phage display or DNA tag added after HEK-293 expression); host or cells: E. coli BL21-derived host (T7 phage) or HEK-293. An excerpt: The Hill Slope was set to −1.

Assay [2] deals with systemic lupus erythematosus (SLE). The conditions noted are these: mouse model of SLE; cited from earlier work.
Assay [3] deals with arthritis. The conditions noted are these: mice; cited from earlier work.
Assay [4] relates to hypersensitive immune responses. The conditions noted are these: rPCA, 30 mg/kg; cited from earlier work.
Assay [5] has as its system adjuvant-induced arthritis. The conditions noted are these: rat AIA, combination; cited from earlier work.
A further assay deals with CD69 expression. The conditions noted are these: oral 3, 30, 100 mg/kg, cited from earlier work.
For assay [6], the system named is CD69 expression in B cells. The conditions noted are these: human whole blood; read-out: IC50 IgM-stimulated CD69 expression in B cells; cited from earlier work.
Assay [7] relates to arthritis. The conditions noted are these: cited from earlier work.
Assay [8] relates to arthritis. The conditions noted are these: 100 mg/kg oral, preventive mode; cited from earlier work.
Assay [9] relates to TNFα release in monocytes. The conditions noted are these: read-out: IC50 IgG-FcγR mediated TNFα release; cited from earlier work.
The subject of assay [10] is histamine release in mast cells. The conditions noted are these: read-out: IC50 IgE-Fce cross-linking induced histamine release; cited from earlier work.
For a further assay, the target named is T3, CASK (Homo sapiens, UniProt O14936).
T3 construct: literature Ambit
T3 sequence (O14936 1-926): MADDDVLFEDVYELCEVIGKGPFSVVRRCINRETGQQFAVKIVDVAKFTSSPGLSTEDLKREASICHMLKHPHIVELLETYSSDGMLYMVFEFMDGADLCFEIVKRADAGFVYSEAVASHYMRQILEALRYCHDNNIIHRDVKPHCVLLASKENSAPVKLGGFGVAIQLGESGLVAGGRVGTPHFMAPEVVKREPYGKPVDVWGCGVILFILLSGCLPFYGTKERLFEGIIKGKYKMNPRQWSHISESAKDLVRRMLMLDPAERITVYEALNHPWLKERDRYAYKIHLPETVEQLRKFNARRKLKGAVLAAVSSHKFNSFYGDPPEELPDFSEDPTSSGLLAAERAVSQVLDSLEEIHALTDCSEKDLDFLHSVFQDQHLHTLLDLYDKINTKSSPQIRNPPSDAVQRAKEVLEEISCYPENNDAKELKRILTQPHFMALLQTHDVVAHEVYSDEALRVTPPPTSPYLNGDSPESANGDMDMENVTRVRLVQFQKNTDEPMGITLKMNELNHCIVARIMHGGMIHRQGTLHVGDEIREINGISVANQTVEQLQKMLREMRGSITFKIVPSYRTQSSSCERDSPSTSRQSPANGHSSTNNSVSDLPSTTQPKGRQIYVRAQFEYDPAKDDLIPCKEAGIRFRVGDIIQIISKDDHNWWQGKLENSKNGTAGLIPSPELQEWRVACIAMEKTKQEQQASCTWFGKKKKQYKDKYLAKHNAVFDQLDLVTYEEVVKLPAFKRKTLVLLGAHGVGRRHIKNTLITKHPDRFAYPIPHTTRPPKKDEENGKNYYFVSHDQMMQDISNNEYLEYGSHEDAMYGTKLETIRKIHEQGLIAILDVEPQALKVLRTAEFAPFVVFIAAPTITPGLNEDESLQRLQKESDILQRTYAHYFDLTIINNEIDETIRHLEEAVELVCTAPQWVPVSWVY
The conditions noted are these: 1 μM; cited from earlier work.

A further assay concerns the target T4, NEK11 (Homo sapiens, UniProt Q8NG66).
T4 construct: literature Ambit
T4 sequence (Q8NG66 1-645): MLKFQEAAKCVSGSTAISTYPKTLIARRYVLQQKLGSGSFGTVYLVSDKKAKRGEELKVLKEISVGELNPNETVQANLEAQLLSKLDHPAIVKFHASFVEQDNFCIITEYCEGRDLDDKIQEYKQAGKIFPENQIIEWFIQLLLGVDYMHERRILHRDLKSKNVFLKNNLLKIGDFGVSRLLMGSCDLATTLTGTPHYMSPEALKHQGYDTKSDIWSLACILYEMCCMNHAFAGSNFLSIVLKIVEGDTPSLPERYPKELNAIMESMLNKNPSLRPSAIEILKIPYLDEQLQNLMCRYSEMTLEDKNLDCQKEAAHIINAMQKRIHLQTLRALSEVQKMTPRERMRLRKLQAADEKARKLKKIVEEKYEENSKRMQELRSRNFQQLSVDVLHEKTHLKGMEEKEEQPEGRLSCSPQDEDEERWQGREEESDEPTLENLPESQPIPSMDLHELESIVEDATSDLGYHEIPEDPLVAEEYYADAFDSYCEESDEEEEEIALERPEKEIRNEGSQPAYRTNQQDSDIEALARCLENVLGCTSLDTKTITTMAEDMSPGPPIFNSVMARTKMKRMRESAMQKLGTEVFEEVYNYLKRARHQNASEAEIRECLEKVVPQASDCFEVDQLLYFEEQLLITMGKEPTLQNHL
The conditions noted are these: 1 μM; cited from earlier work.

The target in a further assay is T5, PDGFRB (Homo sapiens, UniProt P09619).
T5 construct: literature Ambit
T5 sequence (P09619 33-1106): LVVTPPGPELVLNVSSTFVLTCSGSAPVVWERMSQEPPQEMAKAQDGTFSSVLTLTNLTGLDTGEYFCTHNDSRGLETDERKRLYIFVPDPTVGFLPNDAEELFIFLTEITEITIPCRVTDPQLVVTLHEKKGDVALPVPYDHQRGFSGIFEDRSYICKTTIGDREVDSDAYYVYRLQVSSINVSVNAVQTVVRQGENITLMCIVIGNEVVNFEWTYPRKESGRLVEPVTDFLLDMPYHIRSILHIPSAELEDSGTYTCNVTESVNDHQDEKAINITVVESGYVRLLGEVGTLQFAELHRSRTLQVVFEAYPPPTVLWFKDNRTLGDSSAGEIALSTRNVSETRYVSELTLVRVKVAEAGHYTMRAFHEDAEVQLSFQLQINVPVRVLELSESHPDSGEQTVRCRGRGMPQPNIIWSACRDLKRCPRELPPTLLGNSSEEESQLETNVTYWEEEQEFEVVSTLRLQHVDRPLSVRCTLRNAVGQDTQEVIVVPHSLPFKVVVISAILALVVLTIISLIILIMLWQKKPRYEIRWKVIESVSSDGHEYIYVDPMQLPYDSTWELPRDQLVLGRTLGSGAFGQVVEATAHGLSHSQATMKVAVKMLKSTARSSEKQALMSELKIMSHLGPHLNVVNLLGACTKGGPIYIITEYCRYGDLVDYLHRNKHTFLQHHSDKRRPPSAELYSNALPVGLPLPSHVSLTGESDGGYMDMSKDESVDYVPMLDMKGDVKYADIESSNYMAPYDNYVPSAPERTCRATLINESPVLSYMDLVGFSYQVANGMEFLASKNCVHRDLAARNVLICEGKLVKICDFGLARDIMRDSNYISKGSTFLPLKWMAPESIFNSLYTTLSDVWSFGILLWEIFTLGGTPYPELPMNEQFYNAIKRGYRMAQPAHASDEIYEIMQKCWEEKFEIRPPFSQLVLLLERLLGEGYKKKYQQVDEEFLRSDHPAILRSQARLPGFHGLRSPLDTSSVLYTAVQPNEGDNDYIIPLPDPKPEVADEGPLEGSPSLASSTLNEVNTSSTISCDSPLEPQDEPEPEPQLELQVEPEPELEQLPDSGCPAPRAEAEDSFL
The conditions noted are these: 1 μM; cited from earlier work.

Assay [11] has as its target T2, BMX. The conditions noted are these: at Km for ATP; cited from earlier work.
Another assay has as its target T6, MINK (Homo sapiens, UniProt Q8N4C8).
T6 construct: literature Ambit
The conditions noted are these: cited from earlier work.

Where two headings read alike, the source gives them in different places.

T6 sequence (Q8N4C8 whole entry): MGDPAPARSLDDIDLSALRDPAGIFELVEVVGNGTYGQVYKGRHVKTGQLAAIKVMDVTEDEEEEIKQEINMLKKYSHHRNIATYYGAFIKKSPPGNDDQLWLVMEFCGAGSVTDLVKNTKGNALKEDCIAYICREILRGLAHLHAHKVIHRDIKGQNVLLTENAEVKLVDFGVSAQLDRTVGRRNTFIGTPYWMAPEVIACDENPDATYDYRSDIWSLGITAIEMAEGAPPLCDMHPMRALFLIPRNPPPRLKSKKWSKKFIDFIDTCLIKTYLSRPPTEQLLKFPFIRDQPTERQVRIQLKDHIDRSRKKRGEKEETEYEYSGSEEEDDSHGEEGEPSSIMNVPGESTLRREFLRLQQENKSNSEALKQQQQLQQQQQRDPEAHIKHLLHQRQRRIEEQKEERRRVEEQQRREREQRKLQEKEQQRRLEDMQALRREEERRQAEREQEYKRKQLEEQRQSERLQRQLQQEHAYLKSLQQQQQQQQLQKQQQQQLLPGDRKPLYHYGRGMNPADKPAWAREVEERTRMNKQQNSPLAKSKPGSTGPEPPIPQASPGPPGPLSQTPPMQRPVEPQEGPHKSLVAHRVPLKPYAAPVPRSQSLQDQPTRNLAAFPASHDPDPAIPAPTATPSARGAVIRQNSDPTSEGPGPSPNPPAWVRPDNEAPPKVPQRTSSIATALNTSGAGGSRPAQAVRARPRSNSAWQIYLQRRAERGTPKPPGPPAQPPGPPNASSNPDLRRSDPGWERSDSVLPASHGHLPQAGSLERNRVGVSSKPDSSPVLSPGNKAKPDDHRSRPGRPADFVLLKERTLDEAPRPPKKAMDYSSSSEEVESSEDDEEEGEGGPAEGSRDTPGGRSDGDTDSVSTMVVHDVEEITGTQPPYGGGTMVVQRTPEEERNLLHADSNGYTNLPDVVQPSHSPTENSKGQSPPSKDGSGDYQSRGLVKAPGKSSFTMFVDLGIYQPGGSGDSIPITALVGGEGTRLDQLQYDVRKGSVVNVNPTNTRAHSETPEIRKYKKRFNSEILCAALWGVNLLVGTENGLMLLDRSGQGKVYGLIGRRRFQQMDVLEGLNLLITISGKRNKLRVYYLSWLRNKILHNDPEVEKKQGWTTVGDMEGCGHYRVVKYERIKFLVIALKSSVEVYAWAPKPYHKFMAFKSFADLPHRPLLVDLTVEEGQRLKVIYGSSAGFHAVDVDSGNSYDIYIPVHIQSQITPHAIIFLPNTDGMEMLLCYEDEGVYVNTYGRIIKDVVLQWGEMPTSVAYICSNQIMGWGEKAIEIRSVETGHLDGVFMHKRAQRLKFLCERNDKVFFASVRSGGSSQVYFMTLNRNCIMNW
BTK, sequence (Q06187 whole entry): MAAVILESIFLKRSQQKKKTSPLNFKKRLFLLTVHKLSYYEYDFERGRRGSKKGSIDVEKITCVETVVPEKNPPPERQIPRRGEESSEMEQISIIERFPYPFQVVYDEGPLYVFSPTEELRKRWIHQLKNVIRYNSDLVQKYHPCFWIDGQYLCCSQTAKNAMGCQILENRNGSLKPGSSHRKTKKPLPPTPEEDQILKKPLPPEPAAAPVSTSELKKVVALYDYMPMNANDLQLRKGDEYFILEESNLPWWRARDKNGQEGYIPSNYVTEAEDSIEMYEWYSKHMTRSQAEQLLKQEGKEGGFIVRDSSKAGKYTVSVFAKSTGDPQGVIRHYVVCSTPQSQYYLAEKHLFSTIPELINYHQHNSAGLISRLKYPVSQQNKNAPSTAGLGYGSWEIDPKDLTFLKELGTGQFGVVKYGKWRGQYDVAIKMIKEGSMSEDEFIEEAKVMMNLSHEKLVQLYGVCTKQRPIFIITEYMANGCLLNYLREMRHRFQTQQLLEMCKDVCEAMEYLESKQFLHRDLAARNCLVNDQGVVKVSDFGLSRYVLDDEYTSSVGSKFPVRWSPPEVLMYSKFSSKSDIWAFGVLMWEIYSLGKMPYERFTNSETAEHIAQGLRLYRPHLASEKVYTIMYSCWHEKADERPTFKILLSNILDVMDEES
JAK3, sequence (P52333 814-1124 limits assumed): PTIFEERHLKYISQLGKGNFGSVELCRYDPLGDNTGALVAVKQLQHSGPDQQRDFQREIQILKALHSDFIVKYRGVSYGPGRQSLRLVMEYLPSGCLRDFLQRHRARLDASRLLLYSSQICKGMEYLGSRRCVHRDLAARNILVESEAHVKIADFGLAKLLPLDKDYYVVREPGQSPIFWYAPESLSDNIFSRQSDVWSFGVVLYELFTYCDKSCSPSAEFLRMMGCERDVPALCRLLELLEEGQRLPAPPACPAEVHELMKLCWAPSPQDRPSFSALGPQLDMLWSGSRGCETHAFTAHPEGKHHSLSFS
Experimental for BTK: (§1) The assay is performed by combining three components: DNA-tagged kinase; immobilized ligand; and a test compound. The ability of the test compound to compete with the immobilized ligand is measured via quantitative PCR of the DNA tag. The kinase-tagged T7 phage strains were prepared in an E. coli host derived from the BL21 strain. E. coli were grown to log-phase and infected with T7 phage and incubated with shaking at 32° C. until lysis. The lysates were centrifuged and filtered to remove cell debris. The remaining kinases were produced in HEK-293 cells and subsequently tagged with DNA for qPCR detection. […] The liganded beads were blocked with excess biotin and washed with blocking buffer (SeaBlock (Pierce), 1% BSA, 0.05% Tween 20, 1 mM DTT) to remove unbound ligand and to reduce non-specific binding. […] All reactions were performed in polystyrene 96-well plates in a final volume of 0.135 ml. […] The kinase concentration in the eluates was measured by qPCR. An 11-point 3-fold serial dilution of each test compound was prepared in 100% DMSO at 100× final test concentration and subsequently diluted to 1× in the assay (final DMSO concentration=1%). […] Binding constants (Kds) were calculated with a standard dose-response curve using the Hill equation: Response=Background+(Signal−Background)/[1+(Kd^Hill Slope/Dose^Hill Slope)]. The Hill Slope was set to −1. […]
Experimental for JAK3: as §1
Experimental for TEC: as §1

As for `C=CC(=O)Nc1cccc(Nc2nc(-c3cccc(-n4ncc5cc(C(C)(C)C)cc(F)c5c4=O)c3CO)cn(C)c2=O)c1` [CY-130526], the Kd on BTK is 0.86 nM; at JAK3 it was 14000 nM; on TEC, 2400 nM; at BMX [1], 1300 nM. The “selectivity for BTK over TEC, BMX” value on BTK (kinases inhibited the most next to BTK) is recorded as greater than 1000 fold.

Regarding `C=CC(=O)N1CCCC(n2nc(-c3ccc(Oc4ccccc4)cc3)c3c(N)ncnc32)C1` (stereo not drawn) [PCI-32765], the “auto-antibody production and development of kidney disease” value in [2] is listed as “inhibited”. Further, in the assay with arthritis [3], the course of arthritis result is reported as “can reverse” and the “level of circulating autoantibodies” value is listed as “reduces”.

As to `CN1CCN(c2ccc(Nc3cc(-c4cccc(-n5ccc6cc(C7CC7)cc(F)c6c5=O)c4CO)cn(C)c3=O)nc2)CC1` [RN-486], the “effect in blocking hypersensitive immune responses” value in assay [4] is recorded as 91%. Besides, in assay [5], the “effect with low dose methotrexate” value was “additive effects”. The “inhibition of ex vivo anti-IgD stimulated CD69 expression” value is reported as “completely inhibited” in the assay with CD69 expression (3 and 6 h postdose, all doses); 50-80% in the assay with CD69 expression (24 h postdose). In addition, the half-inhibitory concentration (IC50) is 17 nM in assay [6], 4 nM in assay [9] and 29.2 nM in assay [10]. For the same molecule, the disease progression entry with arthritis [7] (mCIA and mCAIA models) is on record as “dose-dependently inhibits”. In addition, the progression of disease entry in the assay on arthritis [7] (therapeutic mode, 30 mg/kg) is reported as “did not show progression of disease”. For the same molecule, the “inhibition of arthritis as measured by clinical scores” value in the assay on arthritis [8] is “complete inhibition”.

In the case of `Cc1c(NC(=O)c2ccc(C(C)(C)C)cc2)cccc1-c1cn(C)c(=O)c(Nc2ccc(C(=O)N3CCOCC3)cc2)n1` [CGI-1746], on CASK, the “displacement of control ligand, CASK” value is reported as 69%. Moreover, the “displacement of control ligand, NEK11” value on NEK11 was 59%. Moreover, the “displacement of control ligand, PDGFRB” value at PDGFRB was 59%. For the same molecule, the IC50 at BMX [11] was 1870 nM. In addition, the “displacement of control ligand, MINK” value on MINK (1 μM) is on record as 77%. The Kd on MINK (read-out: Kd MINK1) was 40000 nM.
